According to patent publication US20240101576A1, “HETEROCYCLIC INHIBITORS OF EGFR AND/OR HER2, FOR USE IN THE TREATMENT OF CANCER” (Scorpion Therapeutics, Inc., priority 2020, published 2024):

Key:
Format in all cases: cell-based
[1] = molecular target: T1, EGFR exon 20 SVD Ins D770_N771 (Ba/F3 cells) (Homo sapiens, UniProt P00533, INS770SVD); assay: Inhibitor activity on EGFR-dependent cell growth (CellTiter-Glo, 72 h), Ba/F3 EGFR exon 20 SVD Ins; settings: read-out: BaF3 SVD IC50
T1 construct: expressed in transfected cells; host or cells: Ba/F3 (murine pro-B cells), retroviral transduction, puromycin selection, IL3-independent pool
Outline: (§1)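 IC50s derive from a sigmoidal dose–response fit of CellTiter-Glo signal. The signal was normalised between […]-treated cells and cell-free medium. Ba/F3 mutant-EGFR cells, seeded at 400–800/well depending on the line, had 72 h of exposure to a 10-point, 3-fold compound series.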

[2] = molecular target: T2, EGFR exon 20 ASV Ins V769_D770 (Ba/F3 cells) (Homo sapiens, UniProt P00533, INS769ASV); assay: Inhibitor activity on EGFR-dependent cell growth (CellTiter-Glo, 72 h), Ba/F3 EGFR exon 20 ASV Ins; settings: read-out: BaF3 ASV IC50
T2 construct: expressed in transfected cells; host or cells: Ba/F3 (murine pro-B cells), retroviral transduction, puromycin selection, IL3-independent pool
Outline: as §1

[3] = molecular target: T3, EGFR exon 20 NPG Ins D770_N771 (Ba/F3 cells) (Homo sapiens, UniProt P00533, INS770NPG); assay: Inhibitor activity on EGFR-dependent cell growth (CellTiter-Glo, 72 h), Ba/F3 EGFR exon 20 NPG Ins; settings: read-out: BaF3 NPG IC50
T3 construct: expressed in transfected cells; host or cells: Ba/F3 (murine pro-B cells), retroviral transduction, puromycin selection, IL3-independent pool
Excerpt: Example A. Inhibitor Activity on EGFR-Dependent Cell Growth
Cell lines are generated by transducing Ba/F3 cells with retroviruses containing vectors with EGFR WT, EGFR L858R, EGFR exon 19del, EGFR L858R/C797S, EGFR exon 20 NPG Ins D770_N771, EGFR exon 20 ASV Ins V769_D770, EGFR exon 20 SVD Ins D770_N771, or EGFR exon 20 FQEA Ins A763_V764 genes and a puromycin selection marker. Transduced cells are selected with puromycin for 7 days and are then be transferred into culture media without Interleukin 3 (IL3). EGFR WT cells are maintained with supplemental EGF. Surviving cells are confirmed to express EGFR by Western blot and maintained as a pool. The IC50 date were included in Table 6 and Table 7.
1.1 Cells are harvested from flask into cell culture medium and the cell number counted.
1.2 Cells are diluted with culture medium to the desired density and 40 μL of cell suspension is added into each well of 384-well cell culture plate and the seeding density is 800 (FQEA, exon 19del), 600 (WT, NPG, L858R/C797S), or 400 (ASV, SVD, L858R) cells/well.
2 Compound Preparation and Treatment
2.1 Test compounds are dissolved to 10 mM in a DMSO stock solution. 45 μL of stock solution is transferred to a 384 polypropylene plate (pp-plate). Perform 3-fold, 10-point dilution via transferring 15 μL compound into 30 μL DMSO using a TECAN (EVO200) liquid handler.
2.2 Spin plates at room temperature at 1,000 RPM for 1 minute.
2.3 Transfer 120 nL of diluted compound from compound source plate into the cell plate.
2.4 After compound treatment for 72 hours, perform CTG detection for compound treatment plates as described in “Detection” section.
3.1 Plates are removed from incubators and equilibrated at room temperature for 15 minutes.
3.2 Thaw the CellTiter Glo reagents and allow to equilibrate to room temperature before the experiment.
3.3 Add 40 μL of CellTiter-Glo reagent into each well (at 1:1 to culture medium). Then place the plates at room temperature for 30 min followed by reading on EnVision.
4.1 Inhibition activity is calculated following the formula below:
% Inhibition=100×(LumHC−LumSample)/(LumHC−LumLC) • where HC is obtained from cells treated with 0.1% DMSO only; and LC is obtained from culture medium only.
4.2 2. Calculate the IC50 by fitting the Curve using Xlfit (v5.3.1.3), equation 201.
Y=Bottom+(Top−Bottom)/(1+10^((Log IC50−X)*HillSlope))

EGFR WT (Ba/F3 cells) = molecular target: T4, EGFR WT (Ba/F3 cells) (Homo sapiens, UniProt P00533); assay: Inhibitor activity on EGFR-dependent cell growth (CellTiter-Glo, 72 h), Ba/F3 EGFR WT; settings: read-out: BaF3 WT IC50
T4 construct: expressed in transfected cells; host or cells: Ba/F3 (murine pro-B cells), retroviral transduction, puromycin selection, maintained with EGF
Outline: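 This growth assay used Ba/F3 cells that depend on wild-type EGFR and are kept in EGF without IL3. Compounds were made up as 10 mM DMSO stocks and diluted 3-fold over 10 points. 120 nL went onto 600 cells/well. After 72 hours, 40 μL CellTiter-Glo was added and luminescence read on EnVision after 30 min.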

T2 sequence (P00533 with tags, fused parts or gaps INS769ASV): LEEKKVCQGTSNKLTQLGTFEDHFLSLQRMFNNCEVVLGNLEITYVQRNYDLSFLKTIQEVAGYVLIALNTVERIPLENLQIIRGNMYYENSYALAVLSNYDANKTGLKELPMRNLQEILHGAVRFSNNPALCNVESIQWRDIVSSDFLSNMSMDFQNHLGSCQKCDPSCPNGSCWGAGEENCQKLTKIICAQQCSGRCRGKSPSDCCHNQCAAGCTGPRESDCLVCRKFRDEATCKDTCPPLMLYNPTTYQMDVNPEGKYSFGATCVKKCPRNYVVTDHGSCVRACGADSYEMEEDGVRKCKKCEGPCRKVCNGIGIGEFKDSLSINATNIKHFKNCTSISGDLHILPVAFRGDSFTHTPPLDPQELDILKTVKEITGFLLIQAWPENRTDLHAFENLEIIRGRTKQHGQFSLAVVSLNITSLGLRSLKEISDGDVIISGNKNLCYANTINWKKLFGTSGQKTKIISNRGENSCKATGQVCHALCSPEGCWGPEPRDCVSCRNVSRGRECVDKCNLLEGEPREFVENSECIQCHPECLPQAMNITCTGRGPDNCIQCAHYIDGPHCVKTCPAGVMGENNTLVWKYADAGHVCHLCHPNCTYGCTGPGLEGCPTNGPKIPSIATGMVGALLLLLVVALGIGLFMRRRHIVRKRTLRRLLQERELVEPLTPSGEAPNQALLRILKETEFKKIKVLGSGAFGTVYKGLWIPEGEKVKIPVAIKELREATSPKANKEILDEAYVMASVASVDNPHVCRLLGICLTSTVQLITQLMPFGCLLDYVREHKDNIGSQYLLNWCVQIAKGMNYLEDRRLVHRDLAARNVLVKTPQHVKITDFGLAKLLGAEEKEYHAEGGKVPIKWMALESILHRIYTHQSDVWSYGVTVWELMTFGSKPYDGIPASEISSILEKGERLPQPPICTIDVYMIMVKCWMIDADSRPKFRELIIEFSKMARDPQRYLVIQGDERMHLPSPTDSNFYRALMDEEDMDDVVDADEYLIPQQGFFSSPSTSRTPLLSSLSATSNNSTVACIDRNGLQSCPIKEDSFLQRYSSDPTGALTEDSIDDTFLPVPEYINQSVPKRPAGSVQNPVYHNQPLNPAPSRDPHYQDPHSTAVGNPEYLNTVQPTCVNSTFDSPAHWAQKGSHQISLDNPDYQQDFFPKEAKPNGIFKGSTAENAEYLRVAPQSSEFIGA
T1 sequence (P00533 with tags, fused parts or gaps INS770SVD): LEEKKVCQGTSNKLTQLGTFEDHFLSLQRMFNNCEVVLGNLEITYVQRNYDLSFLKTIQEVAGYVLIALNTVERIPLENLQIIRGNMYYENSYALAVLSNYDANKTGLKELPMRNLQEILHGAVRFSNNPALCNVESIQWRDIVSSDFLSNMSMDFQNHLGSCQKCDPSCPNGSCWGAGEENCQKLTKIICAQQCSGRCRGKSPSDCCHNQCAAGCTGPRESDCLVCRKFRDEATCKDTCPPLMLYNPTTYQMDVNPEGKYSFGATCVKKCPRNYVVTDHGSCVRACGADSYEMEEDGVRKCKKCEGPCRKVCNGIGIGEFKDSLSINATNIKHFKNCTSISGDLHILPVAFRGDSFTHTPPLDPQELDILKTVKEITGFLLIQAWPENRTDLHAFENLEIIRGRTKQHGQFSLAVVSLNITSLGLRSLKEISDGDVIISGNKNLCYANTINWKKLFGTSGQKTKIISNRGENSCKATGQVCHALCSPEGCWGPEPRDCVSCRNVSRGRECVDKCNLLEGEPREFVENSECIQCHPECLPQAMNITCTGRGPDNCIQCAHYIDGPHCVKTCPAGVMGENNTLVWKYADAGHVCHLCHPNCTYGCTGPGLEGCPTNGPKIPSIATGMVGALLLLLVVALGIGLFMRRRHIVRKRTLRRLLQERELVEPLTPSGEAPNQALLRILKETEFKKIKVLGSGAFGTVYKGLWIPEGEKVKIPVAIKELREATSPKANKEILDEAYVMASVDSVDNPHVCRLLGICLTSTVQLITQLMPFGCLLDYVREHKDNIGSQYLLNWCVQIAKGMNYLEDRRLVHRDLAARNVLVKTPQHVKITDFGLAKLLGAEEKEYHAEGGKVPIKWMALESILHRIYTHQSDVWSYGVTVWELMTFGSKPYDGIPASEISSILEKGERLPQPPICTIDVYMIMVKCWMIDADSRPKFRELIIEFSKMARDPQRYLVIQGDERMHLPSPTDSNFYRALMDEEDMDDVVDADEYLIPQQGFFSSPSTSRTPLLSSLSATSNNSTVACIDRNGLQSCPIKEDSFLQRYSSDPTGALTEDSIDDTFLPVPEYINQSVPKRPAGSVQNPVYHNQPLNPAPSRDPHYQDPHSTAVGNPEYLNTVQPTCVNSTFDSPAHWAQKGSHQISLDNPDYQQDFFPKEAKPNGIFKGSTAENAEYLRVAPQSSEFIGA
T4 sequence (P00533 25-1210): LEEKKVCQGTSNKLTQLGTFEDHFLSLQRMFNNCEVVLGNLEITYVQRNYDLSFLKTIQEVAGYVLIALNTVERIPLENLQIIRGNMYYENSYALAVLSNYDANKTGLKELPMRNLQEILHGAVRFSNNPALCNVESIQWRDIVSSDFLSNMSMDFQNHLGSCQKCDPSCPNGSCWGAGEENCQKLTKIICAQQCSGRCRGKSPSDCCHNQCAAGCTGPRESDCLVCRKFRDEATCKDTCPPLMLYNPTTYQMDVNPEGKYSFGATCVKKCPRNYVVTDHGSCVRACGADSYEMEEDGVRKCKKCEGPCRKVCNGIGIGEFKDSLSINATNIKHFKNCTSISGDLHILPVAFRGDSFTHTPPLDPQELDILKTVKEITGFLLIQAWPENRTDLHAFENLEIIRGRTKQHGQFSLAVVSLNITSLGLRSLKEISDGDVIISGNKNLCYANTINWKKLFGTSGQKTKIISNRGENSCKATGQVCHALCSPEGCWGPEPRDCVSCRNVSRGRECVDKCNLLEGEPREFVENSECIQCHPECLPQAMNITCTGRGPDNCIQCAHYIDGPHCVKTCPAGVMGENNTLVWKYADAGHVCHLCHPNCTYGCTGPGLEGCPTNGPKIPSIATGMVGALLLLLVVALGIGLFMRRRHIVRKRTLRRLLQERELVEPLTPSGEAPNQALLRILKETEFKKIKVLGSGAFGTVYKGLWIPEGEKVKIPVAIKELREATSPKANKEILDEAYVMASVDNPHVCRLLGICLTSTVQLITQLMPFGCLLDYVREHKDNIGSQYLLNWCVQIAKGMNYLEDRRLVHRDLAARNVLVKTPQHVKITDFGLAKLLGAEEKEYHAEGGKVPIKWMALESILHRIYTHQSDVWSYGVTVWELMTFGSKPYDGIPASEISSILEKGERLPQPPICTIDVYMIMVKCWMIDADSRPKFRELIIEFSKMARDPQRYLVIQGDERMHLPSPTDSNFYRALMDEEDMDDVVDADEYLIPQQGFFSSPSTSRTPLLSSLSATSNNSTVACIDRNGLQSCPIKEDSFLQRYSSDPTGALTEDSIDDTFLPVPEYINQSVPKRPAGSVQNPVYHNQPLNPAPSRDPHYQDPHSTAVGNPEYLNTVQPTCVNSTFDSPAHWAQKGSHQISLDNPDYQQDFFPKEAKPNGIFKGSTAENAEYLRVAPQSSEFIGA
T3 sequence (P00533 with tags, fused parts or gaps INS770NPG): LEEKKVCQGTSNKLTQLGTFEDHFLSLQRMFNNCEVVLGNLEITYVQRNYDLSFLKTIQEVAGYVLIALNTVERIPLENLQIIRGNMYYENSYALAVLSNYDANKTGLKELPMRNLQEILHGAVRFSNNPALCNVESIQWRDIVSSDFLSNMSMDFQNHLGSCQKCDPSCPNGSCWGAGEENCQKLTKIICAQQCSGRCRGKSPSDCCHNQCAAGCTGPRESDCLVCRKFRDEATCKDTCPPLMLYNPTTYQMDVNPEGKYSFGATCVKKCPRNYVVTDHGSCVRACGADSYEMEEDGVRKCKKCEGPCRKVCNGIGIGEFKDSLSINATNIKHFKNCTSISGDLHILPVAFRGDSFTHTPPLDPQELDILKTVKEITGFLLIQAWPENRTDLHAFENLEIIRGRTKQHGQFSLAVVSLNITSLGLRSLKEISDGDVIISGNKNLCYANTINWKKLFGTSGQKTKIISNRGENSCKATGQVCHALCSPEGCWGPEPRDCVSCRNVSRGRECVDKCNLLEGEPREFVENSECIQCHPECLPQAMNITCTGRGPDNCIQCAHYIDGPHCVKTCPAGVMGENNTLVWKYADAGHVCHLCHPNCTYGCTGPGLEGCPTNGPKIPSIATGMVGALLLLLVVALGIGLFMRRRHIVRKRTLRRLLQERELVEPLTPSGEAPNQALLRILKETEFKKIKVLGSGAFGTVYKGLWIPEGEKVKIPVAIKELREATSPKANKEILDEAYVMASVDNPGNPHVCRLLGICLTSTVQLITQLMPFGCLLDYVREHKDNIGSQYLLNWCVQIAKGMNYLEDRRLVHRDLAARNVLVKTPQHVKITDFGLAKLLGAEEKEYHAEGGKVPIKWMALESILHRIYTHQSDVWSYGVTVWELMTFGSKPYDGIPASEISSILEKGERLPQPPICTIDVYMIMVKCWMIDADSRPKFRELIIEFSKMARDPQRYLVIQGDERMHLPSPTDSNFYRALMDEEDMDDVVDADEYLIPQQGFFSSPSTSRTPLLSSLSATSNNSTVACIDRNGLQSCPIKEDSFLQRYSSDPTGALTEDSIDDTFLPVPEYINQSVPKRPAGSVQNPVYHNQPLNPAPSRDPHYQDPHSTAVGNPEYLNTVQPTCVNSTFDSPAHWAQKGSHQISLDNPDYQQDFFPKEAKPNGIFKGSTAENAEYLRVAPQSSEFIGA

| Compound | IC50 [1] | IC50 [2] | IC50 [3] | IC50 (EGFR WT (Ba/F3 cells)) |
| --- | --- | --- | --- | --- |
| C=CC(=O)N1CCC2(CC1)CNC(=O)c1c2[nH]c(-c2ccncc2F)c1Nc1cccc(F)c1F [Compound 585, 3′-[(2,3-difluorophenyl)amino]-2′-(3-fluoropyridin-4-yl)-1-(prop-2-enoyl)-5′,6′-dihydro-1′H-spiro[piperidine-4,7′-pyrrolo[3,2-c]pyridin]-4′-one] | < 100 nM | < 100 nM | < 100 nM | 100 to 1000 nM |
| C=CC(=O)N1CCC2(CC1)CNC(=O)c1c2[nH]c(-c2ccncc2F)c1Nc1ccc(F)c(Cl)c1 [Compound 587, 3′-[(3-chloro-4-fluorophenyl)amino]-2′-(3-fluoropyridin-4-yl)-1-(prop-2-enoyl)-5′,6′-dihydro-1′H-spiro[piperidine-4,7′-pyrrolo[3,2-c]pyridin]-4′-one] | < 100 nM | < 100 nM | < 100 nM | 100 to 1000 nM |
| C=CC(=O)N1CCC2(CC1)CNC(=O)c1c2[nH]c(-c2ccncc2F)c1Nc1ccc(Cl)c(F)c1 [Compound 588, 3′-[(4-chloro-3-fluorophenyl)amino]-2′-(3-fluoropyridin-4-yl)-1-(prop-2-enoyl)-5′,6′-dihydro-1′H-spiro[piperidine-4,7′-pyrrolo[3,2-c]pyridin]-4′-one] | < 100 nM | < 100 nM | < 100 nM | < 100 nM |
| C=CC(=O)N1CCC2(CC1)CNC(=O)c1c2[nH]c(-c2ccncc2F)c1Nc1cccc(Cl)c1Cl [Compound 589, 3′-[(2,3-dichlorophenyl)amino]-2′-(3-fluoropyridin-4-yl)-1-(prop-2-enoyl)-5′,6′-dihydro-1′H-spiro[piperidine-4,7′-pyrrolo[3,2-c]pyridin]-4′-one] | < 100 nM | < 100 nM | < 100 nM | 100 to 1000 nM |
| C=CC(=O)N1CCC2(CC1)CNC(=O)c1c2[nH]c(-c2ccncc2F)c1Nc1ccc(Cl)c(Cl)c1 [Compound 590, 3′-[(3,4-dichlorophenyl)amino]-2′-(3-fluoropyridin-4-yl)-1-(prop-2-enoyl)-5′,6′-dihydro-1′H-spiro[piperidine-4,7′-pyrrolo[3,2-c]pyridin]-4′-one] | > 1000 nM | > 1000 nM | 100 to 1000 nM | > 1000 nM |
| COc1ncc2nccc(-c3[nH]c4c(c3Nc3cccc(F)c3OC)C(=O)NC(C(F)(F)F)C4)c2n1 (stereo not drawn) [Compound 595, 3-[(3-fluoro-2-methoxyphenyl)amino]-2-{2-methoxypyrido[3,2-d]pyrimidin-8-yl}-6-(trifluoromethyl)-1H,5H,6H,7H-pyrrolo[3,2-c]pyridin-4-one] | 100 to 1000 nM | 100 to 1000 nM | 100 to 1000 nM | 100 to 1000 nM |
| CC#CC(=O)N1CCC2(CC1)CNC(=O)c1c2[nH]c(-c2ccncc2F)c1Nc1cccc(F)c1OC [Compound 609, 1-(but-2-ynoyl)-3′-[(3-fluoro-2-methoxyphenyl)amino]-2′-(3-fluoropyridin-4-yl)-5′,6′-dihydro-1′H-spiro[piperidine-4,7′-pyrrolo[3,2-c]pyridin]-4′-one] | 100 to 1000 nM | 100 to 1000 nM | > 1000 nM | > 1000 nM |
| COc1c(Cl)cccc1Nc1c(-c2ccnc(-c3cnn(C)c3)n2)[nH]c2c1C(=O)NCC2 [compound 121] | < 100 nM | < 100 nM | < 100 nM | 100 to 1000 nM |
| COc1c(F)cccc1Nc1c(-c2ccnc3c(N)noc23)[nH]c2c1C(=O)NCC2 [compound 523, 2-{3-amino-[1,2]oxazolo[4,5-b]pyridin-7-yl}-3-[(3-fluoro-2-methoxyphenyl)amino]-1H,5H,6H,7H-pyrrolo[3,2-c]pyridin-4-one; trifluoroacetic acid] | < 100 nM | 100 to 1000 nM | < 100 nM | 100 to 1000 nM |
| COc1c(Cl)cccc1Nc1c(-c2ccnc(Nc3ccn(CC(C)(C)O)n3)n2)[nH]c2c1C(=O)NCC2 [compound 537, 3-[(3-chloro-2-methoxyphenyl)amino]-2-(2-{[1-(2-hydroxy-2-methylpropyl)pyrazol-3-yl]amino}pyrimidin-4-yl)-1H,5H,6H,7H-pyrrolo[3,2-c]pyridin-4-one] | < 100 nM | < 100 nM | < 100 nM | 100 to 1000 nM |
| COc1c(Cl)cccc1Nc1c(-c2ccnc(Nc3cnnn3CS(C)(=O)=O)n2)[nH]c2c1C(=O)NCC2 [compound 539, 3-[(3-chloro-2-methoxyphenyl)amino]-2-(2-{[3-(methanesulfonylmethyl)-1,2,3-triazol-4-yl]amino}pyrimidin-4-yl)-1H,5H,6H,7H-pyrrolo[3,2-c]pyridin-4-one] | 100 to 1000 nM | 100 to 1000 nM | 100 to 1000 nM | > 1000 nM |
| COc1c(Cl)cccc1Nc1c(-c2ccnc(-c3cn(C)nn3)n2)[nH]c2c1C(=O)NCC2 [compound 545, 3-[(3-chloro-2-methoxyphenyl)amino]-2-[2-(1-methyl-1,2,3-triazol-4-yl)pyrimidin-4-yl]-1H,5H,6H,7H-pyrrolo[3,2-c]pyridin-4-one] | 100 to 1000 nM | 100 to 1000 nM | < 100 nM | > 1000 nM |
| COc1c(Cl)cccc1Nc1c(-c2ccnc(-c3ccncn3)n2)[nH]c2c1C(=O)NCC2 [compound 546, 2-{[2,4′-bipyrimidin]-4-yl}-3-[(3-chloro-2-methoxyphenyl)amino]-1H,5H,6H,7H-pyrrolo[3,2-c]pyridin-4-one] | 100 to 1000 nM | > 1000 nM | 100 to 1000 nM | > 1000 nM |

Continued, values first:

| IC50 [1] | IC50 [2] | IC50 [3] | IC50 (EGFR WT (Ba/F3 cells)) | Compound |
| --- | --- | --- | --- | --- |
| < 100 nM | < 100 nM | < 100 nM | 100 to 1000 nM | C=CC(=O)N1CCC2(CC1)CNC(=O)c1c2[nH]c(-c2ccncc2F)c1Nc1cccc(Cl)c1F [Compound 586, 3′-[(3-chloro-2-fluorophenyl)amino]-2′-(3-fluoropyridin-4-yl)-1-(prop-2-enoyl)-5′,6′-dihydro-1′H-spiro[piperidine-4,7′-pyrrolo[3,2-c]pyridin]-4′-one] |
| < 100 nM | < 100 nM | < 100 nM | 100 to 1000 nM | CCn1cc(Nc2nccc(-c3[nH]c4c(c3Nc3cccc(Cl)c3OC)C(=O)NCC4)n2)nn1 [Compound 594, 3-[(3-chloro-2-methoxyphenyl)amino]-2-{2-[(1-ethyl-1,2,3-triazol-4-yl)amino]pyrimidin-4-yl}-1H,5H,6H,7H-pyrrolo[3,2-c]pyridin-4-one] |
| < 100 nM | < 100 nM | < 100 nM | 100 to 1000 nM | CCn1nncc1Nc1nccc(-c2[nH]c3c(c2Nc2cccc(Cl)c2OC)C(=O)NCC3)n1 [compound 538, 3-[(3-chloro-2-methoxyphenyl)amino]-2-{2-[(3-ethyl-1,2,3-triazol-4-yl)amino]pyrimidin-4-yl}-1H,5H,6H,7H-pyrrolo[3,2-c]pyridin-4-one] |
| > 1000 nM | > 1000 nM | 100 to 1000 nM | > 1000 nM | COc1c(Cl)cccc1Nc1c(-c2ccnc(-c3ccnnc3)n2)[nH]c2c1C(=O)NCC2 [compound 542, 3-[(3-chloro-2-methoxyphenyl)amino]-2-[2-(pyridazin-4-yl)pyrimidin-4-yl]-1H,5H,6H,7H-pyrrolo[3,2-c]pyridin-4-one] |
| < 100 nM | 100 to 1000 nM | < 100 nM | > 1000 nM | COc1c(Cl)cccc1Nc1c(-c2ccnc(-c3cnn(C)n3)n2)[nH]c2c1C(=O)NCC2 [compound 543, 3-[(3-chloro-2-methoxyphenyl)amino]-2-[2-(2-methyl-1,2,3-triazol-4-yl)pyrimidin-4-yl]-1H,5H,6H,7H-pyrrolo[3,2-c]pyridin-4-one] |
